Data as given in the supplement of paper PMC6045584.
± gives the standard deviation of the averaged measurements.

What was measured:
[1] = compound: CCCS(=O)(=O)Nc1ccc(F)c(C(=O)c2c[nH]c3ncc(Cl)cc23)c1F [PLX-4720]; assay: surviving fraction relative to DMSO-only wells; higher = less growth inhibition; details: exposure time: 5 days
In short: (§1)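 Viability values are CellTiter-Glo luminescence readings, given as surviving fraction against the median of DMSO-only wells. The readings were taken after 10 minutes at room temperature, following five days of continuous exposure to inhibitors at 0.5, 1, 5, 10, 50, 100, 500 and 1000 nM that began 24 hours after log-phase tumour cell lines were seeded at 250–500 cells per well in 384-well plates. Every line was screened three times and kept only if replicate Pearson r >0.7 and median Z' >0.3.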

[2] = compound: O=C(NOCC1CC1)c1ccc(F)c(F)c1Nc1ccc(I)cc1Cl; assay: as above; details: exposure time: 5 days
In short: as §1

| Test System | surviving fraction ([1]; 0.5 nM) | surviving fraction ([1]; 1 nM) | surviving fraction ([1]; 5 nM) | surviving fraction ([1]; 10 nM) | surviving fraction ([1]; 50 nM) | surviving fraction ([1]; 100 nM) | surviving fraction ([1]; 500 nM) | surviving fraction ([1]; 1000 nM) | surviving fraction ([2]; 0.5 nM) | surviving fraction ([2]; 1 nM) | surviving fraction ([2]; 5 nM) | surviving fraction ([2]; 10 nM) | surviving fraction ([2]; 50 nM) | surviving fraction ([2]; 100 nM) | surviving fraction ([2]; 500 nM) | surviving fraction ([2]; 1000 nM) |
| --- | --- | --- | --- | --- | --- | --- | --- | --- | --- | --- | --- | --- | --- | --- | --- | --- |
| PCI30 HEADNECK | 1.03 ± 0.057 | 0.987 ± 0.0079 | 1.01 ± 0.032 | 1.06 ± 0.011 | 1 ± 0.024 | 1.07 ± 0.082 | 0.938 ± 0.087 | 0.959 ± 0.07 | 0.831 ± 0.027 | 0.849 ± 0.074 | 1.02 ± 0.078 | 1.01 ± 0.029 | 0.903 ± 0.015 | 0.758 ± 0.026 | 0.433 ± 0.036 | 0.402 ± 0.023 |
| RDES SOFT TISSUE | 0.795 ± 0.13 | 0.683 ± 0.12 | 0.7 ± 0.079 | 0.747 ± 0.058 | 1.04 ± 0.11 | 0.989 ± 0.25 | 0.994 ± 0.054 | 0.793 ± 0.13 | 1.33 ± 0.025 | 1.27 ± 0.071 | 1.32 ± 0.15 | 1.33 ± 0.093 | 1.28 ± 0.1 | 1.29 ± 0.085 | 1.37 ± 0.16 | 1.24 ± 0.082 |
| S68 BREAST | 0.773 ± 0.17 | 0.685 ± 0.22 | 0.775 ± 0.18 | 0.778 ± 0.19 | 1 ± 0.31 | 1.06 ± 0.12 | 1.09 ± 0.16 | 0.962 ± 0.15 | 0.917 ± 0.13 | 0.918 ± 0.21 | 0.901 ± 0.063 | 1.04 ± 0.27 | 0.801 ± 0.18 | 0.852 ± 0.13 | 0.669 ± 0.1 | 0.544 ± 0.096 |
| SAOS2 BONE | 0.824 ± 0.019 | 0.866 ± 0.013 | 0.891 ± 0.0052 | 0.831 ± 0.049 | 1.08 ± 0.038 | 1.12 ± 0.077 | 1.108 ± 0.0092 | 1.13 ± 0.095 | 1.08 ± 0.042 | 1.06 ± 0.032 | 1.04 ± 0.073 | 1.02 ± 0.018 | 1.02 ± 0.039 | 0.986 ± 0.078 | 0.885 ± 0.031 | 0.908 ± 0.047 |
| SCC36 HEADNECK | 0.761 ± 0.06 | 0.694 ± 0.059 | 0.803 ± 0.036 | 0.76 ± 0.028 | 0.97 ± 0.058 | 0.983 ± 0.017 | 0.974 ± 0.13 | 0.958 ± 0.067 | 1.09 ± 0.037 | 1.15 ± 0.03 | 1.09 ± 0.035 | 1.18 ± 0.12 | 1.03 ± 0.042 | 0.956 ± 0.057 | 0.776 ± 0.082 | 0.78 ± 0.087 |
| SCC47 HEADNECK | 0.871 ± 0.025 | 0.853 ± 0.017 | 0.953 ± 0.041 | 0.884 ± 0.016 | 0.981 ± 0.03 | 1.09 ± 0.03 | 0.999 ± 0.14 | 1.01 ± 0.051 | 0.82 ± 0.063 | 0.844 ± 0.011 | 0.951 ± 0.013 | 0.973 ± 0.087 | 0.928 ± 0.089 | 0.907 ± 0.044 | 0.628 ± 0.058 | 0.658 ± 0.024 |
| SCC90 HEADNECK | 0.874 ± 0.13 | 0.819 ± 0.034 | 0.955 ± 0.011 | 0.965 ± 0.17 | 1.18 ± 0.12 | 1.25 ± 0.077 | 0.64 ± 0.1 | 0.539 ± 0.053 | 0.786 ± 0.13 | 0.773 ± 0.081 | 0.991 ± 0.098 | 0.847 ± 0.16 | 0.672 ± 0.045 | 0.495 ± 0.12 | 0.235 ± 0.036 | 0.193 ± 0.037 |
| SG27 HEADNECK | 0.659 ± 0.094 | 0.877 ± 0.1 | 0.962 ± 0.077 | 0.965 ± 0.12 | 0.788 ± 0.12 | 0.942 ± 0.11 | 0.928 ± 0.1 | 0.955 ± 0.1 | 0.918 ± 0.036 | 1.02 ± 0.075 | 0.973 ± 0.11 | 0.986 ± 0.075 | 1.02 ± 0.22 | 0.988 ± 0.017 | 1.13 ± 0.12 | 1.24 ± 0.19 |
| SG28 HEADNECK | 0.279 ± 0.033 | 0.796 ± 0.12 | 0.718 ± 0.057 | 0.849 ± 0.082 | 0.513 ± 0.014 | 0.964 ± 0.027 | 0.818 ± 0.11 | 0.959 ± 0.036 | 0.871 ± 0.049 | 1.03 ± 0.061 | 0.836 ± 0.024 | 0.932 ± 0.099 | 0.801 ± 0.06 | 0.781 ± 0.065 | 0.633 ± 0.023 | 0.616 ± 0.017 |
| SG31 HEADNECK | 0.492 ± 0.037 | 0.775 ± 0.056 | 0.765 ± 0.053 | 0.96 ± 0.18 | 0.642 ± 0.068 | 0.843 ± 0.048 | 0.963 ± 0.025 | 1.06 ± 0.12 | 1.02 ± 0.087 | 0.977 ± 0.097 | 0.951 ± 0.14 | 1.06 ± 0.18 | 0.778 ± 0.12 | 0.756 ± 0.11 | 0.575 ± 0.032 | 0.547 ± 0.088 |
| SG32 HEADNECK | 0.341 ± 0.11 | 0.617 ± 0.029 | 0.494 ± 0.06 | 0.742 ± 0.094 | 0.366 ± 0.042 | 0.804 ± 0.079 | 0.623 ± 0.16 | 0.821 ± 0.035 | 0.546 ± 0.12 | 0.858 ± 0.042 | 0.883 ± 0.22 | 1.03 ± 0.049 | 0.701 ± 0.085 | 0.805 ± 0.065 | 0.751 ± 0.059 | 0.818 ± 0.079 |
| SG43 HEADNECK | 1.26 ± 0.34 | 1.19 ± 0.013 | 1.09 ± 0.053 | 1 ± 0.1 | 1.13 ± 0.13 | 1.27 ± 0.15 | 1.65 ± 0.22 | 1.7 ± 0.078 | 1.05 ± 0.079 | 0.969 ± 0.011 | 0.853 ± 0.17 | 0.676 ± 0.16 | 0.567 ± 0.1 | 0.521 ± 0.06 | 0.387 ± 0.07 | 0.333 ± 0.064 |
| SIHA CERVIX | 0.908 ± 0.016 | 0.877 ± 0.034 | 0.909 ± 0.041 | 0.995 ± 0.034 | 0.993 ± 0.022 | 1.07 ± 0.068 | 1.06 ± 0.041 | 1.09 ± 0.055 | 0.754 ± 0.016 | 0.8147 ± 0.0075 | 0.955 ± 0.058 | 0.923 ± 0.027 | 0.899 ± 0.018 | 0.873 ± 0.06 | 0.709 ± 0.042 | 0.765 ± 0.067 |
| SJSA1 BONE | 0.89 ± 0.025 | 0.914 ± 0.026 | 0.904 ± 0.028 | 0.948 ± 0.025 | 1.03 ± 0.033 | 1.03 ± 0.062 | 0.998 ± 0.059 | 0.955 ± 0.074 | 1.05 ± 0.036 | 1.06 ± 0.035 | 1.119 ± 0.0046 | 1.11 ± 0.013 | 0.968 ± 0.025 | 0.925 ± 0.027 | 0.742 ± 0.028 | 0.591 ± 0.046 |
| SKBR3 BREAST | 0.838 ± 0.027 | 0.81 ± 0.098 | 0.819 ± 0.14 | 0.813 ± 0.15 | 1.05 ± 0.12 | 1.01 ± 0.15 | 0.986 ± 0.17 | 0.892 ± 0.14 | 1.12 ± 0.17 | 1.1 ± 0.13 | 1.11 ± 0.07 | 1.1 ± 0.26 | 1.08 ± 0.19 | 1.05 ± 0.14 | 1.06 ± 0.14 | 1.05 ± 0.13 |
| SNU475 LIVER | 0.358 ± 0.028 | 0.806 ± 0.029 | 0.674 ± 0.01 | 0.808 ± 0.02 | 0.392 ± 0.029 | 0.919 ± 0.021 | 0.839 ± 0.024 | 1 ± 0.055 | 0.432 ± 0.042 | 0.908 ± 0.038 | 0.802 ± 0.022 | 0.941 ± 0.018 | 0.439 ± 0.015 | 0.883 ± 0.013 | 0.676 ± 0.018 | 0.741 ± 0.039 |
| SUM44 BREAST | 0.9 ± 0.025 | 0.868 ± 0.058 | 0.932 ± 0.011 | 0.969 ± 0.022 | 1.07 ± 0.072 | 1.02 ± 0.052 | 0.946 ± 0.045 | 0.92 ± 0.03 | 0.951 ± 0.042 | 0.954 ± 0.062 | 1.04 ± 0.013 | 1.05 ± 0.032 | 1.07 ± 0.064 | 1.03 ± 0.043 | 1.02 ± 0.082 | 1.03 ± 0.047 |
| SUM149 BREAST | – | – | – | 0.827 ± 0.063 | 0.289 ± 0.02 | 0.991 ± 0.094 | 0.821 ± 0.05 | 0.919 ± 0.011 | 0.375 ± 0.011 | 1.04 ± 0.067 | 0.908 ± 0.059 | 0.912 ± 0.032 | 0.512 ± 0.024 | 0.755 ± 0.1 | 0.407 ± 0.031 | 0.277 ± 0.053 |
| SUM149.B1*.S BREAST | 0.392 ± 0.028 | 0.793 ± 0.046 | 0.787 ± 0.036 | 0.8912 ± 0.0055 | 0.517 ± 0.056 | 0.968 ± 0.042 | 0.863 ± 0.038 | 1.02 ± 0.015 | 0.5813 ± 0.0045 | 0.956 ± 0.018 | 0.835 ± 0.058 | 0.945 ± 0.034 | 0.6543 ± 0.0045 | 0.789 ± 0.0088 | 0.503 ± 0.024 | 0.459 ± 0.05 |
| SUM159 BREAST | 1.04 ± 0.28 | 1.08 ± 0.28 | 1.04 ± 0.21 | 1.08 ± 0.23 | 1.08 ± 0.25 | 1.1 ± 0.26 | 1.1 ± 0.24 | 1.11 ± 0.21 | 1.06 ± 0.29 | 1.03 ± 0.12 | 1.11 ± 0.36 | 1.03 ± 0.24 | 0.84 ± 0.2 | 0.726 ± 0.1 | 0.518 ± 0.11 | 0.455 ± 0.023 |
| SYO1 SYNOVIAL | 0.336 ± 0.15 | 0.772 ± 0.089 | 0.658 ± 0.089 | 0.809 ± 0.043 | 0.408 ± 0.14 | 0.942 ± 0.017 | 0.865 ± 0.11 | 0.988 ± 0.061 | 0.469 ± 0.17 | 0.941 ± 0.093 | 0.833 ± 0.065 | 0.888 ± 0.034 | 0.542 ± 0.11 | 0.885 ± 0.023 | 0.784 ± 0.058 | 0.8681 ± 0.0032 |
